Laboratory results taken from PubChem BioAssay (NCI).
“And” between values parts separate entries of the source, which are not always exact repeats. Equal entries are not always repeated.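 Values below derive from 48-hour exposures of cells grown in 96-well plates, with endpoints linearly interpolated between the two concentrations bracketing the appropriate inhibition level. GI50 is the concentration that inhibits growth by half. The concentration for full growth arrest is given as TGI.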

Test system: MDA-MB-468 breast
Test: NCI-60 cell line screen, 48 h

Compound | GI50 | TGI
O=C1NC(=NCc2ccccn2)S/C1=C\c1ccc2ncccc2c1 | 5970 nM | > 25000 nM
Cc1ccc2c(n1)C(=O)C(Cl)=C(Nc1ccc(C(C)C)cc1)C2=O | 512 nM | 1850 nM
Cc1nc2cc(O)c(O)cc2cc1Oc1ccc(NC(=O)Nc2ccc(Cl)c(Cl)c2)cc1 | 6990 nM | 17400 nM
Nc1nc(N)c2c(n1)NC(c1ccccc1)CC(c1ccc(Nc3nc(NCCO)nc(Nc4ccc(Cl)cc4)n3)cc1)=N2 (configuration not stated) | 1510 nM | 2990 nM
Cc1ccccc1NC(=O)NC(CC(N)=O)c1ccc2c(c1)nc(-c1cccc(Oc3ccc(C(C)(C)C)cc3)c1)n2CCCN1CCCCC1C (configuration not stated) | 1780 nM | 3280 nM
CNCCNc1nc2ccccc2c2c(=O)c3cccc(OC)c3sc12 | 1450 nM | 3060 nM
CN(C)CCn1cc(-c2ccc3c(Nc4ccc(CC(=O)Nc5cccc(F)c5)cc4)ncnc3c2)cn1 | 1260 nM | 2850 nM
Nc1nc(Cl)nc2c1ncn2C1O[C@H](CO)[C@@H](O)[C@@H]1F (some centres not stated) | 387 nM | 21800 nM
Fc1ccc(Nc2nc(Nc3ccc(-c4nc5ccccc5[nH]4)cc3)nc(N3CCCC3)n2)cc1 | 2750 nM | 6740 nM
COc1ccccc1Nc1nc(-c2cc3cccc(C(F)(F)F)c3oc2=O)cs1 | 97 nM | 710 nM
COc1ccc(-n2c(N)c(C(=O)NCCN3CCOCC3)c3nc4ccccc4nc32)cc1OC | 17900 nM | > 100000 nM
COc1cccc2c1C(=O)c1c(O)c3c(c(O)c1C2=O)C[C@@](O)(C(C)=O)C[C@@H]3OC1CC(N)C(O)C(C)O1 (some centres not stated) | 62.3 nM | 313 nM
Oc1ccc2ccccc2c1/C=N\Nc1ccccn1 | 1590 nM | 4870 nM
O=[N+]([O-])c1ccc2[nH]cc(-c3c4ccccc4cc4[nH]c5ccc([N+](=O)[O-])cc5c34)c2c1 | 2500 nM | 7710 nM
CCCCCCCCSC1=CC(=O)C(OC)=C(OC)C1=O | 1430 nM | 2970 nM
Cc1ccc(/C=C(\C#N)n2nnc3cc(F)c(F)cc32)cc1 | 10300 nM | 44400 nM
CCCCOC(=O)N[C@H]1CCc2cc(OC)c(OC)c(OC)c2-c2ccc(SC)c(=O)cc21 | < 10 nM | 19400 nM
C=C1C(=O)O[C@H]2[C@H]1CC/C(COC(=O)CCC(=O)OC/C1=C/CC[C@@]3(C)O[C@H]3[C@H]3OC(=O)C(=C)[C@@H]3CC1)=C\CC[C@@]1(C)O[C@@H]21 | 1560 nM | 4830 nM
CCOc1ccc2c(c1)/C(=C\C=C\C1CC(C)C3CC(OCC)CCC3N1CC)CC(C)N2CC (configuration not stated) | 280 nM | 1110 nM
CS(=O)(=O)c1nccc(-c2c(-c3cccc(OCc4ccc(Cl)c(C(F)(F)F)c4)c3)nc3sccn23)n1 | 859 nM | 1660 nM
COc1ccc(/C=C(/C(=O)N2CCNCC2)c2cc(OC)c(OC)c(OC)c2)cc1O | 2270 nM | 9710 nM

Compound | GI50 | TGI
COc1ccc(C2CC(c3cc(OC)c(OC)c(OC)c3)=NN2)cc1 (configuration not stated) | 4350 nM | 64500 nM
CC(C)(C)CC(C)(C)Cc1ccc(OCCOCC[N+](C)(C)Cc2ccccc2)cc1 | 235 nM | 1200 nM
Cn1c(=O)c(F)c(Nc2ccc(I)cc2F)c2c(=O)n(C[C@@H](O)CO)cnc21 | 1800 nM and 590 nM | 8660 nM and > 2090 nM
CN1CCC(n2cc(Nc3ncc4c(=O)n(-c5c(Cl)cccc5Cl)cc(Br)c4n3)cn2)CC1 | 937 nM | 7270 nM
COC(=O)c1ccc2c(c1)nc(-c1ccc(Cl)cc1)n2-c1cc(C(C)(C)C)[nH]n1 | 2400 nM | 7980 nM
NC(=O)NC(=O)CI | 2480 nM | 7730 nM
Cc1ccc(/C=C2\CCOC2=O)cc1 | > 100000 nM | > 100000 nM
COc1ccc(C(=O)Nc2cccc(C3CC(=O)c4c(cc(OC)c(OC)c4OC)O3)c2)cc1 (configuration not stated) | 940 nM | > 100000 nM
Cn1c(=O)c(Cc2ccc(F)cc2F)cc2cnc(NC3CCOCC3)nc21 | 19600 nM | > 25000 nM
CCN1C(=O)N(c2c(F)c(OC)cc(OC)c2F)Cc2cnc3[nH]c(CN4CCOCC4)cc3c21 | 2290 nM | 55900 nM
Cn1c2ccccc2c2c3c(c4c5ccccc5n(CCCCCC#N)c4c21)C(=O)N(O)C3=O | 683 nM | 6120 nM
C[n+]1c2ccccc2c(NC2CCNCC2)c2[nH]c3ccccc3c21 | 200 nM | 1260 nM
O=C(CCN1CCCC1)Nc1ccc2c(NCCCCc3ccccc3)c3ccccc3nc2c1 | 811 nM | 2120 nM
CSC(=S)N/N=C(\C)c1ccccn1 | 68.5 nM | 1210 nM
COc1cc(-c2ccc(-c3ccc(C(=N)N)s3)s2)cc(OC)c1OC | 1820 nM | 3700 nM
C=C1C(=O)O[C@H]2[C@H]1CC/C(Cn1cc(CCC)nn1)=C\CC[C@@]1(C)O[C@@H]21 | 3650 nM | 14900 nM
COC(=O)c1c(-c2ccccc2)csc1NC(=O)c1c(-c2ccccc2)noc1C | 3200 nM | > 100000 nM
COc1ccc(/C=N/NC2=NC3C(S2)N(C)C(=O)N3C)cc1 (configuration not stated) | 1950 nM | 5350 nM
O=C1NC(=NCCc2ccccc2Cl)S/C1=C\c1ccc2ncccc2c1 | 2170 nM | > 18300 nM
C=C1C(=O)O[C@@H]2/C=C(/C)C3=CC(=O)[C@@](C)(C[C@H](OC(=O)/C(C)=C\C)[C@@H]12)O3 | 1140 nM | 5030 nM
